Laboratory results taken from patent US20140093513A1, “METHODS OF LOWERING PROPROTEIN CONVERSATE SUBTILISIN/KEXIN TYPE 9 (PCSK9)” (Catabasis Pharmaceuticals, Inc., priority 2012, published 2014).

Test system: PCSK9
Experiment: PCSK9 secretion assay in HepG2 cells (PCSK9 ELISA)
Format: cell-based
Conditions: HepG2 cells, 16 hours incubation, at least 6 concentrations
Protocol: HepG2 cells (from ATCC, Catalog no. HB-8065) were maintained in DMEM (Invitrogen) supplemented with 10% fetal bovine serum (Invitrogen). The day prior to the PCSK9 assay, cells are seeded in 96-well collagen coated plates at 25,000 cells/well.
The compounds of the invention were stored at −20° C. until used. The test article compound was dissolved in 100% ethanol to a 50 mM stock solution. This was then diluted in FBS to a final concentration of 1 mM. This solution was placed in a sonicating water bath for 30 minutes. Subsequent dilutions were then made in FBS supplemented with an equivalent volume of ethanol and mixed by vortexing.
HepG2 cells were seeded onto a collagen coated 96-well plate (Becton Dickinson, Catalog no. 35-4407) the day prior to the assay, as described above. The next day, the cell medium was removed, washed once with 100 μL serum free DMEM to remove any residual PCSK9, and replaced with 90 μL of serum free DMEM. Ten microliters of each compound concentration prepared in FBS was then added. Each concentration of compound was tested in triplicate. The compound was incubated with the cells overnight for 16 hours. Following this incubation, 10 μL of AlamarBlue was added to each well and cells incubated for another 2 hours. The plates were then removed and AlamarBlue fluorescence was measured (excitation, 550 nm and […]) to assess cell viability. Cell culture supernatant was then diluted […] 1×RDSP Calibrator Diluent and PCSK9 ELISA was then performed with 50 μL of this diluted sample, as per the manufacturer's instructions. The ELISA was measured on a Victor X5 multilabel plate reader (PerkinElmer) at an absorbance of 450 nm with background correction measured at 550 nm (The PCSK9 Elisa kits can be purchased from R&D System, Catalog no. DPC900).
Alternatively, an IC50 could also be obtained when this type of assay was carried out using at least 6 different concentrations of the test compounds. Table 1 lists the IC50 values for the compounds tested in this assay.

`CC/C=C\C/C=C\C/C=C\C/C=C\C/C=C\C/C=C\CCC(=O)NCCN(C)CCNC(=O)c1cccnc1` [Compound I-2] and `CC/C=C\C/C=C\C/C=C\C/C=C\C/C=C\C/C=C\CCC(=O)NCCNC(=O)c1cccnc1` [Compound I-7, N-(2-(4Z,7Z,10Z,13Z,16Z,19Z)-docosa-4,7,10,13,16,19-hexaenamidoethyl)nicotinamide] cannot be ordered by IC50: under 25 µM for the first, under 25 µM for the second.

Compared with `CC/C=C\C/C=C\C/C=C\C/C=C\C/C=C\CCCC(=O)N1CCN(C(=O)c2cccnc2)CC1` [Compound I-13, (5Z,8Z,11Z,14Z,17Z)-1-(4-nicotinoylpiperazin-1-yl)icosa-5,8,11,14,17-pentaen-1-one], `CC/C=C\C/C=C\C/C=C\C/C=C\C/C=C\CCCC(=O)N1CCC(NC(=O)c2cccnc2)CC1` [Compound I-22, N-(1-((5Z,8Z,11Z,14Z,17Z)-icosa-5,8,11,14,17-pentaenoyl)piperidin-4-yl)nicotinamide] is lower in IC50: 25 to 50 µM for the first, under 25 µM for the second.

`CC/C=C\C/C=C\C/C=C\C/C=C\C/C=C\C/C=C\CCC(=O)N(C)CCNC(=O)c1cccnc1` [Compound I-14, N-(2-((4Z,7Z,10Z,13Z,16Z,19Z)—N-methyldocosa-4,7,10,13,16,19-hexaenamido)ethyl)nicotinamide] and `CC/C=C\C/C=C\C/C=C\C/C=C\C/C=C\CCCC(=O)NCCCCNC(=O)c1cccnc1` [Compound I-19, N-(4-((5Z,8Z,11Z,14Z,17Z)-icosa-5,8,11,14,17-pentaenamido)butyl)nicotinamide] cannot be ordered by IC50: under 25 µM for the first, under 25 µM for the second.

Compared with `CC/C=C\C/C=C\C/C=C\C/C=C\C/C=C\CCCC(=O)NCC(C)(C)NC(=O)c1cccnc1` [Compound I-21, N-(1-((5Z,8Z,11Z,14Z,17Z)-icosa-5,8,11,14,17-pentaenamido)-2-methylpropan-2-yl)nicotinamide], `CC/C=C\C/C=C\C/C=C\C/C=C\C/C=C\CCCC(=O)NCCNC(=O)[C@@H](NC(=O)c1cccnc1)C(C)C` [Compound I-25, N—((S)-1-((2-((5Z,8Z,11Z,14Z,17Z)-icosa-5,8,11,14,17-pentaenamido)ethyl)amino)-3-methyl-1-oxobutan-2-yl)nicotinamide] is higher in IC50: under 25 µM for the first, 25 to 50 µM for the second. The first is the more potent here.

`CC/C=C\C/C=C\C/C=C\C/C=C\C/C=C\CCCC(=O)N[C@H]1CCN(C(=O)c2cccnc2)C1` [Compound I-23, (5Z,8Z,11Z,14Z,17Z)—N—((S)-1-nicotinoylpyrrolidin-3-yl)icosa-5,8,11,14,17-pentaenamide] and `CC/C=C\C/C=C\C/C=C\C/C=C\C/C=C\CCCC(=O)NC1CCN(C(=O)c2cccnc2)CC1` [Compound I-28, (5Z,8Z,11Z,14Z,17Z)—N-(1-nicotinoylpiperidin-4-yl)icosa-5,8,11,14,17-pentaenamide] cannot be ordered by IC50: under 25 µM for the first, under 25 µM for the second.

First: CC/C=C\C/C=C\C/C=C\C/C=C\C/C=C\CCCC(=O)NCCNC(=O)CCNC(=O)c1cccnc1 [Compound I-26, N-(3-((2-((5Z,8Z,11Z,14Z,17Z)-icosa-5,8,11,14,17-pentaenamido)ethyl)amino)-3-oxopropyl)nicotinamide]
Second: CC/C=C\C/C=C\C/C=C\C/C=C\C/C=C\CCCC(=O)NCCNC(=O)[C@@H]1CCCN1C(=O)c1cccnc1 [Compound I-27, (S)—N-(2-((5Z,8Z,11Z,14Z,17Z)-icosa-5,8,11,14,17-pentaenamido)ethyl)-1-nicotinoylpyrrolidine-2-carboxamide]
The IC50 of the first is higher: 25 to 50 µM for the first, under 25 µM for the second. The second is the more potent here.

`CC/C=C\C/C=C\C/C=C\C/C=C\C/C=C\CCCC(=O)NCC1CCN(C(=O)c2cccnc2)CC1` [Compound I-29, (5Z,8Z,11Z,14Z,17Z)—N-((1-nicotinoylpiperidin-4-yl)methyl)icosa-5,8,11,14,17-pentaenamide] was tested, and the IC50 was under 25 µM.

Same assay, conditions: HepG2 cells, highest tested concentration of 50 μM, FIG. 1

In the case of `CC/C=C\C/C=C\C/C=C\C/C=C\C/C=C\CCCC(=O)NCCNC(C)=O` [Compound A, (5Z,8Z,11Z,14Z,17Z)—N-(2-acetamidoethyl)icosa-5,8,11,14,17-pentaenamide, reference compound], the “activity toward PCSK9” value is reported as “essentially no activity”.
